Experiment: Water solubility and temperature responsibility in aqueous solvent (visual / turbidity)
Text: However, the depsipeptide unit is not considered to be a material which exerts temperature responsibility in an aqueous solvent containing no organic solvent. […] Accordingly, the depsipeptide unit -Gly-X2-Cly-Hmb-Pro-(X2=any α-amino acid residue) is thought to be unsuitable as a temperature responsive material and thus has not been investigated intensively.

Question: With “Poly[(Gly^1-Val^2-Gly^3-Hmb^4-Ala^5-Pro^6)-co-(Gly^7-Lys(Z)^8-Gly^9-Val^10-Ala^11-Pro^12)]” as the substance, how does the “temperature responsibility in aqueous solvent” value read?
Answer: temperature responsibility thereof was confirmed

Source: patent publication US20090275730A1, “Temperature responsive depsipeptide polymer” (priority 2004, published 2009)
